Laboratory results reported in article PMC8148468, “Shikimic acid protects skin cells from UV-induced senescence through activation of the NAD+-dependent deacetylase SIRT1” (Aging (Albany NY), 2021).
Read-outs that look alike come from different tables or passages of the source.

Assays:
[1] = system: primary human dermal fibroblasts (HDFs)
Source text: In our efforts to identify novel factors that could prevent skin cell senescence, we developed a screening process to identify new modulators of the protective role of sirtuins in UV-induced senescence. For this purpose, we established a culture of primary human dermal fibroblasts (HDFs). […] Our first step in the screening was to establish the optimal concentrations of these compounds in the case of HDFs. […] Once established, we took these parameters into account to decide the specific working range of concentrations for each compound.
Human dermal fibroblasts (HDFs) (Promocell, Germany) from 40-year old Caucasian women were used as the in vitro model for compound viability and efficacy screening. Cells were cultured in Dulbecco's modified eagle medium (DMEM) low glucose (Biowest, France) supplemented with 10% fetal bovine serum (FBS) (Capricorn Scientific, Germany) and 10 U/mL penicillin/streptomycin (Biowest, France) in a humidified incubator at 37° C and 5% CO2. For cell passage, cells at 80% confluence were trypsinized and plated at 60% confluence. Cells between passage 13 and 18 were used for the assays. For the SIRT1 in vitro assay, HEK293 cells (ATCC, USA), used to transfect and immunoprecipitate SIRT1 protein, were grown in DMEM high glucose (Thermo Fisher Scientific, USA), supplemented with 10% FBS in a humidified incubator at 37° C and 5% CO2. The following experiments were all performed in triplicate.
(§1) The protocol for senescence induction using UVB irradiation is described in the Supplementary Methods. SA-β-Gal staining, WST-1, sulforhodamine B (SRB) and trypan blue assays were performed as previously described. For the siRNA experiments, the protocol for senescence induction using UVB irradiation was the same as in the Supplementary Methods. Specific siRNA (Horizon discovery, UK) for SIRT1, SIRT2, SIRT6, BiP or scramble siRNA were incubated for 6 hours before each irradiation step.

[2] = system: H4K16ac (the target of SIRT1 and SIRT2); assay: Sirtuin activity assay in HDF: H4K16ac levels (Western blot); assay type: cell-based, human; conditions: HDF treated 24h; for SIRT1,2 H4K16ac: Figure 1B; for SIRT1,2 H4K16ac: key: ↑: increase; ↓: decrease; hyphens that indicate no effect (-)
Protocol: (§2) Figure 1 (A) Schematic representation of the compound testing for sirtuin activity evaluation in HDF. Cells were treated with or without the compounds for 24h and harvested for analysis. […] (C) Western Blot analysis and (D) quantification of H4K16ac and H3K9ac levels in cells treated with Resveratrol or Shikimic acid at the indicated concentrations. H4K16 and H3K9 levels were normalized to H4 and H3 levels respectively. Student T-test, *p<0.05, **p<0.01, ***p<0.001.
(§3) HDFs were plated in 100x20 mm2 cell culture plates and after 24h, fresh cell culture medium containing the compounds was added. After 24h, cells were detached with cell scrapers, harvested, and processed for qPCR or western blot.
(§4) Protein levels were analyzed as previously described. Cells were directly lysed in 1x Laemmli Buffer (Bio-Rad, USA), incubated at 95° C and centrifuged. Supernatant was subjected to SDS-polyacrylamide gel electrophoresis, and successive steps were performed as described. The list of antibodies used is included in Supplementary Table 2.

[3] = system: H3K9ac (the target of SIRT1, SIRT2 and SIRT6); assay: Sirtuin activity assay in HDF: H3K9ac levels (Western blot); assay type: cell-based, human; conditions: HDF treated 24h; for SIRT1,2,6 H3K9ac: Figure 1B; for SIRT1,2,6 H3K9ac: key: ↑: increase; ↓: decrease; hyphens that indicate no effect (-)
Protocol: as §2, §3, §4

[4] = system: UVB-irradiated human dermal fibroblasts (HDFs); assay: UVB-induced senescence assay: SA-β-Gal staining; assay type: cell-based; conditions: for β-Gal: HDF, 2 cycles of UVB, compound day 1 to 7, Figure 2B; for β-Gal: key: ↑: increase; ↓: decrease; hyphens that indicate no effect (-)
Protocol: (§5) In the second approach, we established a method for inducing senescence in these cells with 2 cycles of UVB irradiation 72h apart (Figure 2A). The use of UVA to induce senescence was discarded due to its considerably longer time requirement, being unsuitable to screen 30 compounds within a reasonable period. Cells were treated with these compounds throughout the duration of the assay and cellular senescence was monitored with two markers: accumulation of SA-β-galactosidase (SA-β-Gal) activity, and the decrease in expression of HAS2 (hyaluronic acid synthase 2), a previously reported marker of skin senescence.
(§6) Figure 2 (A) Schematic representation of the protocol for senescence induction using UVB irradiation. Cells were treated -/+ the compounds from day 1 to 7 after seeding, irradiated with UVB on days 2 and 5 and harvested for analysis on day 7. […] (C) Phase-contrast (left column) and bright field (right column) microscope images of SA-β-Gal staining showing non-irradiated cells, UVB-irradiated cells non-treated and treated with Gallic acid or Shikimic acid at the indicated concentrations. (D) Percentage of SA-β-Gal positive cells and (E) Relative HAS2 mRNA levels in non-irradiated cells, UVB-irradiated cells and UVB-irradiated cells treated with Gallic acid or Shikimic acid at the indicated concentrations. Student T-test, *p<0.05, **p<0.01, ***p<0.001.
as §1
(§7) Senescence induction by UVB irradiation For the non-irradiation control conditions, HDF were […]
(§8) After 24h, culture medium was removed and well plates. After 24h, culture medium was removed replaced by fresh cell culture medium containing the and replaced with fresh cell culture medium containing compounds at different concentrations. After 24h, the compounds at different concentrations. […]
(§9) cell culture medium was removed, and cells were cells/plate in fresh cell culture medium containing the irradiated at 25 mJ/cm2 of UVB light (312 nm) in a Bio- compound in 6-well plates. After 3 days, cells were […]
(§10) amount of PBS. PBS was then removed and fresh cell fresh cell culture medium containing the compound in culture medium with the compound was added to each 6-well plates. After 2 days, cells were processed well. After 3 days, cells were irradiated again under the according to the qPCR, β-Gal staining, apoptosis, cell same conditions. After 2 days, cells were processed cycle or immunofluorescence protocols. according to the qPCR, β-Gal staining, apoptosis, cell cycle or immunofluorescence protocols.

[5] = system: HAS2 (hyaluronic acid synthase 2); assay: UVB-induced senescence assay: HAS2 gene expression (qPCR); assay type: cell-based, human
Protocol: as §5, §6
RNA was extracted from cell pellets using the Total RNA Purification Kit (Norgen, Canada), according to the manufacturer’s protocol. Extracted RNA was quantified using a NanoDrop® ND-1000 UV-Vis Spectrophotometer (Thermo Fisher Scientific, USA) and 300 ng of RNA were retrotranscribed to cDNA using the PrimeScriptTM RT reagent kit (Takara Bio Inc., Japan). cDNA was diluted 1/10 in ultrapure water and qPCR mix was prepared by adding cDNA (12 ng), SYBR green supermix (Bio Rad, USA), forward and reverse primers (0.2μM). The primers and their respective sequences are listed in Supplementary Table 1. qPCR protocol included one step at 95° C for 30 s, 40 cycles at 95° C for 10s, and 60° C for 1min. The results were analyzed with Bio-Rad CFX Manager software. BACT was used as a housekeeping gene to normalize gene expression.
as §7, §8, §9, §10

[6] = HDF, 2 cycles of UVB, compound day 1 to 7, Figure 2B
[7] = HDFs, WST-1 cell viability test
[8] = HDFs, WST-1 cell viability test, maximum non-cytotoxic dose

Compound	LD50 ([1]; female, human) [mM]	Max. non-cyt. doses ([1]; female, human) [mM]	SIRT1,2 H4K16ac [2]	effect on H3K9ac levels [3]	β-Gal [4]	HAS2 expression [5, 6]	LD50 [1, 7] [mM]	effect on H4K16ac levels [2]	HAS2 expression ([5]; UVB-irradiated HDF)	Max. non-cyt. doses [1, 8] [mM]	SIRT1,2,6 H3K9ac [3]	SA-β-Gal accumulation/staining ([4]; UVB-irradiated HDF)	effect of sirtuin inhibitor on the protective effect of SA on senescence (SA-β-Gal and HAS2 expression) ([4]; UVB-irradiated HDF, SA 10, 25, 50 mM plus EX-527 1 μM, AGK2 2 μM or OSS128167 200 μM)	Max. non-cyt. doses [1] [mM]
c1coc(CNc2ncnc3[nH]cnc23)c1 [Kinetin]	1.835	0.5	-	reduced the levels of H3K9ac only	-	-								
O=c1c(O)c(-c2ccc(O)c(O)c2)oc2cc(O)cc(O)c12 [Quercetin, reference compound]		0.25		induced a similar effect on both targets	-		0.604	induced a similar effect on both targets	only promoted HAS2 upregulation					
NC(=S)N/N=C/c1ccccc1O [Salicyladehyde thiosemicarbazone]			-		-	-	4.175			0.5	-			
O=C(CCc1ccc(O)cc1)c1c(O)cc(O)cc1O [Phloretin]	0.166	0.05			-			had an effect solely on H4K16ac			-			
O=C(OC[C@H]1OC(O)[C@@](O)(COC(=O)c2cc(O)c(O)c(O)c2)[C@@H]1O)c1cc(O)c(O)c(O)c1 (stereo partly shown) [Hamamelitannin]			-		-	-	0.247			0.1	-			
C[N+](C)(C)CC(=O)O [Betaine]			-		-	-	507.81			50	-			
NCCC(=O)N[C@@H](Cc1cnc[nH]1)C(=O)O [Carnosine]			-		-		85.46			25	-	did not change the level of SA-β-Gal staining		
O=C(Nc1ccc(O)c(C(=O)O)c1)c1cccc(NC(=O)c2ccco2)c1 [OSS128167, reference compound]													produced no clear effect	
O=C(O)CCCC[C@@H]1CCSS1 (racemic) [Lipoic acid]			-		-						-	did not change the level of SA-β-Gal staining		1
O=C(O)c1cc(O)c(O)c(O)c1 [Gallic acid]	0.179	0.1	-		-						-			
